# Assay results published in US20210299198A1, “DIABETES-ALLEVIATING OR ANTIOXIDANT COMPOSITION COMPRISING YEAST EXTRACT AND METHOD FOR PREPARING YEAST EXTRACT” (COENBIO CO., LTD., priority 2018, published 2021).
# Read-outs that look alike come from different tables or passages of the source.
# How the values were obtained:
# [1] = Radical cation de-colorization assay using ABTS; type: biochemical
# Procedure: 7 mM ABTS was mixed with 2.45 mM potassium persulfate and incubated at room temperature for 16 h to create ABTS cations (ABTS^+). […] The results are shown in Tables 5 and 6 (see FIGS. 4 and 8).
# [2] = Free radical scavenging assay using DPPH; type: biochemical
# Procedure: An antioxidant scavenges DPPH radicals, losing its original color and being made transparent. The test sample was mixed with 2,2-diphenyl-1-picrylhydrazyl (DPPH, 100 μM) in a ratio of 1:20 and the mixture was stored at 37° C. for 30 min. After completion of the reaction, the absorbance was measured at 517 nm using a spectrophotometer. A lower absorbance indicates a higher antioxidant activity. […] The results are shown in Tables 3 and 4 (see FIGS. 3 and 7).
# [3] = type: biochemical
# Procedure: First, 50 μL of potassium ferricyanide and 20 μL of each sample were added to 50 μL of a 0.2 M phosphate buffer solution (pH 6.6) and the mixture was allowed to react at 50° C. for 20 min. After completion of the reaction, 50 μL of a 10% TCA solution was added, followed by centrifugation at 3000×g for 20 min. 100 μL of the supernatant, 200 μL of triple-distilled water, and 20 μL of 0.1% ferric chloride were added, and the absorbance was measured at 700 nm. Trolox and BHA were used as positive controls.
structure (smiles),measurement,setting,value
"O=C1O[C@H]([C@@H](O)CO)C(O)=C1O [Ascorbic acid, ascorbic acid]",ABTS scavenging activities (IC50) AVERAGE,[1]; yeast extracts 1,0.26 mg/mL
same,ABTS scavenging activities (IC50) AVERAGE,[1]; yeast extracts 2,0.26 mg/mL
same,DPPH scavenging activities (IC50) AVERAGE,[2]; yeast extracts 1,0.01 mg/mL
same,DPPH scavenging activities (IC50) AVERAGE,[2]; yeast extracts 2,0.01 mg/mL
same,Reducing power activities (absorbance at 700 nm),"[3]; yeast extract 2, 15.625 μg/mL",0.058 ± 0.001
same,Reducing power activities (absorbance at 700 nm),"[3]; yeast extract 2, 62.5 μg/mL",0.267 ± 0.002
same,Reducing power activities (absorbance at 700 nm),"[3]; yeast extract 2, 250 μg/mL",0.940 ± 0.005
same,Reducing power activities (absorbance at 700 nm),"[3]; yeast extract 2, 1000 μg/mL",1.146 ± 0.008
same,Reducing power activities (absorbance at 700 nm),"[3]; yeast extracts 1, 15.625 μg/mL",0.058 ± 0.001
same,Reducing power activities (absorbance at 700 nm),"[3]; yeast extracts 1, 62.5 μg/mL",0.267 ± 0.002
same,Reducing power activities (absorbance at 700 nm),"[3]; yeast extracts 1, 250 μg/mL",0.940 ± 0.005
same,Reducing power activities (absorbance at 700 nm),"[3]; yeast extracts 1, 1000 μg/mL",1.146 ± 0.008
